Reference: patent US20230365592A1 (Agios Pharmaceuticals, Inc., priority 2022, published 2023)

Target: T1, human PAH with the R408W mutation (Homo sapiens, UniProt P00439, R408W)
T1 construct: expressed in transfected cells
T1 sequence (P00439 1-452 R408W): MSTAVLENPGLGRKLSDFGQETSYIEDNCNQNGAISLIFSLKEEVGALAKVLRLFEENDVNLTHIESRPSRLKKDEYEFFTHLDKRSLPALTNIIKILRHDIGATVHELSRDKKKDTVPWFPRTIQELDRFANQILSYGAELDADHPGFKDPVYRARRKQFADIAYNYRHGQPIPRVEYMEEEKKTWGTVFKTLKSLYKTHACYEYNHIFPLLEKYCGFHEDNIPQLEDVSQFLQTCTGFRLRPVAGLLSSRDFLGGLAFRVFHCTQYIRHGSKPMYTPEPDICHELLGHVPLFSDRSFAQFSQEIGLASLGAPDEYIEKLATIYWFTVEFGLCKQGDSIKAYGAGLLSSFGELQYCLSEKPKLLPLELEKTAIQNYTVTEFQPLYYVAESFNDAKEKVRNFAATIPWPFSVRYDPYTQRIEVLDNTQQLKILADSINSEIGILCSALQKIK
Assay: Cell Based Phenylalanine Flux Assay;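 further: after compound treatment, cells received sepiapterin plus isotope-labelled Phenylalanine for 4 hours, then labelled Tyrosine in the medium was quantified, 10-point 2-fold dilution series run in duplicate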
Conditions: A375 cells expressing R408W PAH; 24 hrs with compound, then 20 µM sepiapterin and 800 µM 13C9,15N-Phenylalanine for 4 hours; 13C-Tyrosine by LC-MS; average where tested multiple times; read-out: AC50

SMILES	AC50
Cn1cc(-c2ccc3c(C(=O)N4CCc5[nH]cnc5[C@@H]4c4cc5ccccn5n4)cnn3c2)cn1 (single isomer, unassigned)	1 to 5 µM
O=C(c1nnc(C2CC(F)(F)C2)o1)N1CCc2[nH]cnc2[C@@H]1c1cc2cccc(C(F)F)n2n1 (single isomer, unassigned)	> 5 µM
FC(F)c1cccn2nc([C@H]3c4nc[nH]c4CCN3c3nc4ccccc4o3)cc12 (single isomer, unassigned)	> 5 µM
COc1cccn2nc(C3c4nc[nH]c4CCN3C(=O)c3nnc(-c4ccn(C)n4)o3)cc12 (single isomer, unassigned)	> 5 µM
Cn1cc(-c2nnc(C(=O)N3CCc4[nH]cnc4[C@@H]3c3cc4cc(F)ccn4n3)o2)cn1 (single isomer, unassigned)	1 to 5 µM
Cc1nc(C(C)(C)O)oc1C(=O)N1CCc2[nH]cnc2[C@@H]1c1cc2cccc(C(F)(F)F)n2n1 (single isomer, unassigned)	1 to 5 µM
CC(C)c1nnc(C(=O)N2CCc3[nH]cnc3[C@@H]2c2cc3cccc(C(F)(F)F)n3n2)o1 (single isomer, unassigned)	1 to 5 µM
FC(F)c1cccc2cc([C@H]3c4nc[nH]c4CCN3c3nnc(C4CCC4)o3)nn12 (single isomer, unassigned)	> 5 µM
Cc1nnc(C(=O)N2CCc3[nH]cnc3[C@@H]2c2cc3cccc(C(F)(F)F)n3n2)o1 (single isomer, unassigned)	1 to 5 µM
Fc1cccn2nc([C@H]3c4nc[nH]c4CCN3c3nnc(-c4cccnc4)o3)cc12 (single isomer, unassigned)	> 5 µM
Cc1cccn2nc([C@H]3c4nc[nH]c4CCN3c3nnc(-c4cccnc4)o3)cc12 (single isomer, unassigned)	> 5 µM
Cc1cccn2nc([C@H]3c4nc[nH]c4CCN3C(=O)c3nnc(N4CCOCC4)o3)cc12 (single isomer, unassigned)	> 5 µM
O=C(c1ocnc1C1CC1)N1CCc2[nH]cnc2[C@@H]1c1cc2cccc(C(F)(F)F)n2n1 (single isomer, unassigned)	> 5 µM
N#Cc1ncoc1C(=O)N1CCc2[nH]cnc2[C@@H]1c1nn2ccccc2c1Br (single isomer, unassigned)	1 to 5 µM
O=C(c1cnco1)N1CCc2[nH]cnc2[C@@H]1c1cc2ccccn2n1 (single isomer, unassigned)	1 to 5 µM
Cc1cccc2cc([C@H]3c4nc[nH]c4CCN3C(=O)c3cnn4cc(C5CC5)ccc34)nn12 (single isomer, unassigned)	> 5 µM
Fc1ccc(-c2nnc(N3CCc4[nH]cnc4[C@@H]3c3cc4ccccn4n3)o2)nc1 (single isomer, unassigned)	> 5 µM
Cn1cc(N2CCc3[nH]cnc3[C@H]2c2cc3ccccn3n2)cn1 (single isomer, unassigned)	> 5 µM
Cn1ccc(-c2ncc(C(=O)N3CCc4[nH]cnc4[C@H]3c3cc4ccccn4n3)o2)n1 (single isomer, unassigned)	1 to 5 µM
CC1(c2nnc(-n3cnc4c3[C@@H](c3cc5ccccn5n3)NCC4)o2)CC1 (single isomer, unassigned)	1 to 5 µM
O=C(c1nnc(-c2cc[nH]n2)o1)N1CCc2[nH]cnc2[C@H]1c1cc2ccccn2n1 (single isomer, unassigned)	1 to 5 µM

SMILES	AC50
Cc1c([C@@H]2c3nc[nH]c3CCN2C(=O)c2nnc(-c3cnn(C)c3C)o2)nn2ccccc12 (single isomer, unassigned)	1 to 5 µM
CC(C)(F)c1nnc(C(=O)N2CCc3[nH]cnc3[C@H]2c2cc3cc(C(F)(F)F)ccn3n2)o1 (single isomer, unassigned)	1 to 5 µM
CC(C)(F)c1nnc(C(=O)N2CCc3[nH]cnc3C2c2cc3cc(F)ccn3n2)o1 (single isomer, unassigned)	1 to 5 µM
Cc1cccn2nc([C@@H]3c4nc[nH]c4CCN3c3nnc(C4CC(F)(F)C4)o3)cc12 (single isomer, unassigned)	1 to 5 µM
O=C(c1nnc(C2CC(F)(F)C2)o1)N1CCc2[nH]cnc2[C@H]1c1cc2cccc(F)n2n1 (single isomer, unassigned)	1 to 5 µM
Cn1cc(-c2nnc(C(=O)N3CCc4[nH]cnc4C3c3nn4ccccc4c3Br)o2)cn1 (single isomer, unassigned)	1 to 5 µM
Cn1cc(-c2nnc(N3CCc4[nH]cnc4[C@H]3c3cc4c(F)cccn4n3)o2)cn1 (single isomer, unassigned)	1 to 5 µM
Cc1nnc(N2CCc3[nH]cnc3[C@H]2c2cc3c(F)cccn3n2)o1 (single isomer, unassigned)	1 to 5 µM
O=C(c1nnc(-c2cn[nH]c2)o1)N1CCc2[nH]cnc2[C@H]1c1cc2c(F)cccn2n1 (single isomer, unassigned)	1 to 5 µM
COc1cccn2nc([C@@H]3c4nc[nH]c4CCN3C(=O)c3nnc(-c4ccn(C)n4)o3)cc12 (single isomer, unassigned)	1 to 5 µM
COc1cccn2nc([C@@H]3c4nc[nH]c4CCN3c3nnc(C)o3)cc12 (single isomer, unassigned)	1 to 5 µM
Cc1nnc(C(=O)N2CCc3[nH]cnc3[C@H]2c2cc3ccc(F)cn3n2)o1 (single isomer, unassigned)	1 to 5 µM
Cc1nnc(C(=O)N2CCc3[nH]cnc3[C@H]2c2cc3cccc(C(F)F)n3n2)o1 (single isomer, unassigned)	1 to 5 µM
Cn1cnc(-c2nnc(C(=O)N3CCc4[nH]cnc4[C@H]3c3cc4cccc(C(F)F)n4n3)o2)c1 (single isomer, unassigned)	1 to 5 µM
Nc1cnc(N2CCc3[nH]cnc3[C@H]2c2cc3cccc(C(F)F)n3n2)nc1 (single isomer, unassigned)	> 5 µM
Cc1nnc(N2CCc3[nH]cnc3[C@H]2c2cc3cccc(Cl)n3n2)o1 (single isomer, unassigned)	1 to 5 µM
O=C(c1oc(-c2ccccn2)nc1C1CC1)N1CCCc2[nH]cnc2[C@H]1c1cc2ccccn2n1 (single isomer, unassigned)	1 to 5 µM
Cc1nc(-c2ccccn2)oc1C(=O)N1CCc2[nH]cnc2[C@H]1c1cc2ccccn2n1 (single isomer, unassigned)	1 to 5 µM
Cc1nc(C(C)(C)O)oc1C(=O)N1CCc2[nH]cnc2[C@H]1c1cc2ccccn2n1 (single isomer, unassigned)	1 to 5 µM
FC(F)(F)c1cccn2nc([C@@H]3c4nc[nH]c4CCN3c3nnc(-c4ncccn4)o3)cc12 (single isomer, unassigned)	1 to 5 µM
O=C(c1nnc(-c2ncccn2)o1)N1CCc2[nH]cnc2[C@H]1c1cc2c(C3CC3)cccn2n1 (single isomer, unassigned)	> 5 µM

SMILES	AC50
COc1cccn2nc([C@@H]3c4nc[nH]c4CCN3C(=O)c3nnc(C(C)(C)O)o3)cc12 (single isomer, unassigned)	> 5 µM
Cc1cccn2nc([C@@H]3c4nc[nH]c4CCN3c3nnc(-c4ncccn4)o3)cc12 (single isomer, unassigned)	1 to 5 µM
CC(C)(O)c1ncc(C(=O)N2CCc3[nH]cnc3[C@H]2c2cc3cccc(Cl)n3n2)o1 (single isomer, unassigned)	1 to 5 µM
Cc1cccc2cc([C@@H]3c4nc[nH]c4CCN3C(=O)c3cnc(C(C)(C)O)o3)nn12 (single isomer, unassigned)	1 to 5 µM
O=C(c1cnc(-c2cnccn2)o1)N1CCc2[nH]cnc2C1c1cc2ccccn2n1 (single isomer, unassigned)	1 to 5 µM
COc1cccn2nc([C@@H]3c4nc[nH]c4CCN3c3nnc(C4CC4)o3)cc12 (single isomer, unassigned)	1 to 5 µM
c1ccn2nc([C@H]3NCCc4ncn(-c5nnc(C6CC6)o5)c43)cc2c1 (single isomer, unassigned)	1 to 5 µM
Cc1ncccc1-c1nnc(N2CCc3[nH]cnc3[C@H]2c2cc3c(C4CC4)cccn3n2)o1 (single isomer, unassigned)	1 to 5 µM
Fc1cccn2nc(C3c4nc[nH]c4CCN3c3nnc(-c4cccnc4)o3)cc12 (single isomer, unassigned)	1 to 5 µM
c1ccn2nc([C@@H]3c4nc[nH]c4CCN3c3nnc(N4CCOCC4)o3)cc2c1 (single isomer, unassigned)	> 5 µM
COCc1ccc2c(C(=O)N3CCc4[nH]cnc4[C@H]3c3cc4cccc(F)n4n3)cnn2c1 (single isomer, unassigned)	1 to 5 µM
N#Cc1ncoc1C(=O)N1CCc2[nH]cnc2[C@H]1c1nn2ccccc2c1Br (single isomer, unassigned)	1 to 5 µM
O=C(c1cnco1)N1CCc2[nH]cnc2[C@H]1c1cc2ccc(F)cn2n1 (single isomer, unassigned)	1 to 5 µM
Cn1ncc(C(=O)N2CCc3[nH]cnc3[C@H]2c2cc3ccccn3n2)c1C(F)F (single isomer, unassigned)	1 to 5 µM
CN(C)C(=O)c1nnc(N2CCc3[nH]cnc3[C@H]2c2cc3c(C(F)(F)F)cccn3n2)o1 (single isomer, unassigned)	1 to 5 µM
Cc1nc([C@H](C)O)oc1C(=O)N1CCc2[nH]cnc2[C@H]1c1cc2cccc(C)n2n1 (single isomer, unassigned)	1 to 5 µM
COc1cccn2nc([C@@H]3c4nc[nH]c4CCN3C(=O)c3cnn4cc(CN(C)C)ccc34)cc12 (single isomer, unassigned)	1 to 5 µM
CN(C)CCc1ccc2c(C(=O)N3CCc4[nH]cnc4[C@H]3c3cc4ccccn4n3)cnn2c1 (single isomer, unassigned)	> 5 µM
CN(C)Cc1ccc2c(C(=O)N3CCc4[nH]cnc4C3c3cc4ccccn4n3)cnn2c1 (single isomer, unassigned)	1 to 5 µM
COC(=O)N1CC(C(=O)N2CCc3[nH]cnc3[C@H]2c2cc3ccccn3n2)C1 (single isomer, unassigned)	> 5 µM
